# According to ChEMBL document CHEMBL4622909, “PARP inhibitor cyanine dye conjugate with enhanced cytotoxic and antiproliferative activity in patient derived glioblastoma cell lines” (Bioorg Med Chem Lett, 2020):
# Calls of active or inactive are those of the source. No cut-off for these calls is given here.
# Tests used:
# GBM [1] = assay: Antiproliferative activity against human patient derived GBM cells assessed as reduction in cell proliferation up to 100 uM measured after 48 hrs by Edu incorporation assay; type: functional, cell-based
# GBM [2] = assay: Cytotoxicity against human patient derived GBM cells assessed as reduction in cell viability measured after 48 hrs by Hoechst staining based assay; type: functional
# GBM [3] = assay: cells; type: functional, cell-based; conditions: Homo sapiens, 48 h
# Description: Synergistic antiproliferative activity against human patient derived GBM cells assessed as reduction in cell proliferation measured after 48 hrs in presence of temozolomide by Edu incorporation assay
# GBM [4] = assay: Synergistic cytotoxicity against human patient derived GBM cells assessed as reduction in cell viability measured after 48 hrs in presence of temozolomide by Hoechst staining based assay; type: functional
# GBM [5] = assay: Antiproliferative activity against human patient derived GBM cells assessed as reduction in cell proliferation measured after 48 hrs by Edu incorporation assay relative to compound alone; type: functional
# GBM [6] = assay: Antiproliferative activity against human patient derived GBM cells assessed as reduction in cell proliferation measured after 48 hrs by Edu incorporation assay; type: functional, cell-based
# GBM [7] = assay: Potency index, ratio of IR-786 IC50 to test compound IC50 for human patient derived GBM cells assessed as reduction in cell viability measured after 48 hrs by Hoechst staining based assay; type: functional
# GBM [8] = assay: Potency index, ratio of rucaparib IC50 to test compound IC50 for human patient derived GBM cells assessed as reduction in cell viability measured after 48 hrs by Hoechst staining based assay; type: functional
# GBM [9] = assay: Ratio of EC50 for cytotoxicity against human patient derived GBM assessed as reduction in cell viability measured after 48 hrs by Hoechst staining based assay to EC50 for synergistic cytotoxicity against human patient derived GBM assessed as reduction in cell viability measured after 48 hrs in presence of temozolomide by Hoechst staining based assay; type: functional
# GBM [10] = assay: Potency index, ratio of IR-786 IC50 to test compound IC50 for synergistic cytotoxicity against human patient derived GBM cells assessed as reduction in cell viability measured after 48 hrs in presence of temozolomide by Hoechst staining based assay; type: functional
SMILES,Activity (GBM [1]),EC50 (GBM [2]),IC50 (GBM [3]),EC50 (GBM [4]),Ratio IC50 (GBM [5]),IC50 (GBM [6]),Ratio IC50 (GBM [7]),Ratio IC50 (GBM [8]),Ratio EC50 (GBM [9]),Ratio IC50 (GBM [10])
Cn1nnc2c(C(N)=O)ncn2c1=O,inactive,,,,,,,,,
CNCc1ccc(-c2[nH]c3cc(F)cc4c3c2CCNC4=O)cc1 [RUCAPARIB],,> 100000 nM,2260 nM,> 100000 nM,24,53400 nM,,,,
CN1/C(=C/C=C2\CCCC(/C=C/C3=[N+](C)c4ccccc4C3(C)C)=C2N2CCN(c3ccc(-c4[nH]c5cc(F)cc6c5c4CCNC6=O)cc3)CC2)C(C)(C)c2ccccc21.[I-],,128 nM,20 nM,56 nM,2,21 nM,13.5,780,2,7
